Measured values from patent US20240398771A1, “TREATMENT OF SCLERODERMA AND RAYNAUD'S SYNDROME” (Aisa Pharma, Inc., priority 2023, published 2024).

Tested on: participants with SSc-RP
Assay: Average duration of weekly symptomatic RP attacks (minutes)
Format: in vivo, human
Details: Excluding Outliers, ITT Part A, Baseline RCS subgroup 1 (Table B-4, stratum not given)
From the text: The relevant metrics measured by this tool daily are: • Study medication • SSc-RP symptoms (Reporting an attack including duration of attack) • Severity of the attack considering all symptoms of the attack e.g. tingling, numbness, pain, color changes (VAS 0-10 cm scale) • Participant's location at the time of the attack (inside home/outside home) • Selecting symptoms experienced during the attack (tingling, numbness, pain, color changes, other) • Pain rating during the attack (11-point Likert scale) • The RCS based on how much difficulty participants had with Raynaud's today, how many attacks the participant had, and how long they lasted. Participants will also be asked to consider how much pain, numbness, or other symptoms the Raynaud's caused in fingers (including painful sores), and how much the Raynaud's alone affected the use of hands today (VAS 0-10 cm scale).
The absolute change in average duration of weekly RP attacks from baseline to the end of each dosing period was and will be a secondary outcome variable. The sponsor-developed participant-informed diary was and will be used to record data. Average duration of weekly RP attacks is defined as the total duration of RP attacks divided by total number of RP attacks within the last 7 days of each dosing period. Total duration of RP attacks during the last 7 days of screening period divided by the total number of RP attacks will be used as baseline for the analysis of all periods. The variable will be calculated similar to frequency data as before.

[1] = last 7 days of dosing period, listed as Cilnidipine 10 mg
[2] = last 7 days of dosing period, listed as Cilnidipine 20 mg
[3] = last 7 days of dosing period, listed as Pooled Cilnidipine
[4] = last 7 days of screening period, listed as Cilnidipine 10 mg
[5] = last 7 days of screening period, listed as Cilnidipine 20 mg
[6] = last 7 days of screening period, listed as Pooled Cilnidipine

Compound: COCCOC(=O)C1=C(C)NC(C)=C(C(=O)OC/C=C/c2ccccc2)C1c1cccc([N+](=O)[O-])c1 (stereo not shown) [Cilnidipine, 1,4-dihydro-2,6-dimethyl,4-(3-nitrophenyl)-3,5-pyridinedicarboxylic acid 2-methoxyethyl (2 E)-3-phenyl-2-propenyl ester]
- Average Duration of weekly symptomatic RP attacks, Max [1]: 31.6, 31.6 minutes
- Average Duration of weekly symptomatic RP attacks, Mean [1]: 31.64 min
- Average Duration of weekly symptomatic RP attacks, Min [1]: 31.6, 31.6 minutes
- Average Duration of weekly symptomatic RP attacks, Q3 [1]: 31.64, 31.64 minutes
- Average duration of weekly symptomatic RP attacks, Change from Baseline, Max [1]: −16.7, −16.7 minutes
- Average duration of weekly symptomatic RP attacks, Change from Baseline, Min [1]: −16.7, −16.7 minutes
- Average duration of weekly symptomatic RP attacks, Change from Baseline, Q1 [1]: −16.74, −16.74 minutes
- Average duration of weekly symptomatic RP attacks, Percent Change from Baseline, Max [1]: −34.6, −34.6%
- Average Duration of weekly symptomatic RP attacks [2]: 3.0 min
- Average Duration of weekly symptomatic RP attacks, Max [2]: 30.5 min
- Average Duration of weekly symptomatic RP attacks, Q1 [2]: 3.00 min
- Average Duration of weekly symptomatic RP attacks, Q3 [2]: 30.45 min
- Average duration of weekly symptomatic RP attacks, Change from Baseline [2]: -10.3 min
- Average duration of weekly symptomatic RP attacks, Change from Baseline, Max [2]: 4.1 min
- Average duration of weekly symptomatic RP attacks, Change from Baseline, Mean [2]: -3.13 min
- Average duration of weekly symptomatic RP attacks, Change from Baseline, Median [2]: -3.13 min
- Average duration of weekly symptomatic RP attacks, Change from Baseline, Q1 [2]: -10.33 min
- Average duration of weekly symptomatic RP attacks, Change from Baseline, Q3 [2]: 4.07 min
- Average duration of weekly symptomatic RP attacks, Percent Change from Baseline, Max [2]: 15.4%
- Average duration of weekly symptomatic RP attacks, Percent Change from Baseline, Mean [2]: −31.05%
- Average duration of weekly symptomatic RP attacks, Percent Change from Baseline, Median [2]: −31.05%
- Average duration of weekly symptomatic RP attacks, Percent Change from Baseline, Min [2]: −77.5%
- Average duration of weekly symptomatic RP attacks, Percent Change from Baseline, Q1 [2]: −77.50%
- Average duration of weekly symptomatic RP attacks, Percent Change from Baseline, Q3 [2]: 15.41%
- Average Duration of weekly symptomatic RP attacks [3]: 3.0 min
- Average Duration of weekly symptomatic RP attacks, Max [3]: 31.6 min
- Average Duration of weekly symptomatic RP attacks, Q1 [3]: 3.00 min
- Average duration of weekly symptomatic RP attacks, Change from Baseline [3]: -16.7 min
- Average duration of weekly symptomatic RP attacks, Change from Baseline, Max [3]: 4.1 min
- Average duration of weekly symptomatic RP attacks, Change from Baseline, Mean [3]: -7.67 min
- Average duration of weekly symptomatic RP attacks, Change from Baseline, Q1 [3]: -16.74 min
- Average duration of weekly symptomatic RP attacks, Change from Baseline, Q3 [3]: 4.07 min
- Average duration of weekly symptomatic RP attacks, Percent Change from Baseline, Max [3]: 15.4%
- Average duration of weekly symptomatic RP attacks, Percent Change from Baseline, Mean [3]: −32.23%
- Average duration of weekly symptomatic RP attacks, Percent Change from Baseline, Median [3]: −34.60%
- Average duration of weekly symptomatic RP attacks, Percent Change from Baseline, Min [3]: −77.5%
- Average duration of weekly symptomatic RP attacks, Percent Change from Baseline, Q1 [3]: −77.50%
- Average duration of weekly symptomatic RP attacks, Percent Change from Baseline, Q3 [3]: 15.41%
- Average duration of weekly symptomatic RP attacks, Baseline, Max [4]: 48.4, 48.4 minutes
- Average duration of weekly symptomatic RP attacks, Baseline, Mean [4]: 48.38 min
- Average duration of weekly symptomatic RP attacks, Baseline, Median [4]: 48.38 min
- Average duration of weekly symptomatic RP attacks, Baseline, Min [4]: 48.4, 48.4 minutes
- Average duration of weekly symptomatic RP attacks, Baseline, Q1 [4]: 48.38, 48.38 minutes
- Average duration of weekly symptomatic RP attacks, Baseline, Q3 [4]: 48.38, 48.38 minutes
- Average duration of weekly symptomatic RP attacks, Baseline [5]: 13.3 min
- Average duration of weekly symptomatic RP attacks, Baseline, Max [5]: 26.4 min
- Average duration of weekly symptomatic RP attacks, Baseline, Mean [5]: 19.86 min
- Average duration of weekly symptomatic RP attacks, Baseline, Median [5]: 19.86 min
- Average duration of weekly symptomatic RP attacks, Baseline, Q1 [5]: 13.33 min
- Average duration of weekly symptomatic RP attacks, Baseline, Q3 [5]: 26.39 min
- Average duration of weekly symptomatic RP attacks, Baseline [6]: 13.3 min
- Average duration of weekly symptomatic RP attacks, Baseline, Max [6]: 48.4 min
- Average duration of weekly symptomatic RP attacks, Baseline, Mean [6]: 29.37 min
- Average duration of weekly symptomatic RP attacks, Baseline, Median [6]: 26.39 min
- Average duration of weekly symptomatic RP attacks, Baseline, Q1 [6]: 13.33 min
